Measured values published in US20030152628A1, “Dual release formulation comprising levodopa ethyl ester and a decarboxylase inhibitor in an immediate-release layer with levodopa ethyl ester in a controlled release core” (priority 2001, published 2003).
≈ marks a conversion by molar mass, not a printed value.

Columns and labels:
[1] = Solubility and stability properties of the active materials
[2] = Solubility at ˜22-24° C. versus pH; format: physicochemical
Excerpt: However, carbidopa and LDEE, examples of two active materials in the composition of the present invention, have different chemical and physical properties and contrasting solubility characteristics especially in acid conditions, i.e., in the gastrointestinal tract (see Table 1).

| solubility in water [1] | stability at room temperature ([1]; kept under refrigeration (2-8° C.)) | Solubility ([2]; pH 1.0) | Solubility ([2]; pH 5.0) | SMILES | sensitivity to moisture / hydrolysis [1] |
| --- | --- | --- | --- | --- | --- |
| slightly soluble | – | – | – | C[C@@](Cc1ccc(O)c(O)c1)(NN)C(=O)O [Carbidopa, carbidopa, reference compound] | – |
| – | not stable at room temperature | 2200 mg/mL (≈ 9770 mM) | 1700 mg/mL (≈ 7550 mM) | CCOC(=O)[C@@H](N)Cc1ccc(O)c(O)c1 [LDEE, levodopa ethyl ester] | highly sensitive to moisture, undergoes hydrolysis easily |
